Measurements: US20200163984A1, “USE OF ISOVALERYL SPIRAMYCIN I, II AND/OR III IN MANUFACTURING MEDICAMENT FOR TREATING AND/OR PREVENTING TUMOR, AND MEDICAMENT” (SHENYANG FUYANG PHARMACEUTICAL TECHNOLOGY CO., LTD., priority 2017, published 2020)
≈ marks a conversion by molar mass, not a printed value.

Key:
[1] = tested on: human large cell lung cancer cells H1299; conditions: H1299, MTT, 48 hours
Experimental: The purpose of the assay is to evaluate the in vitro cell proliferation inhibition or cytotoxic activity of a tested sample.
MCF-7, MDA-MB-231, HepG2, A549, H460, H1299, 786-0, 769-P, U251, A172, HeLa, PC3, PANC-1, TE-1, SGC7901, and HT-29 were adherent tumor cells. The adherent tumor cells in the logarithmic growth phase were selected and digested with trypsin, then were prepared into a 4 to 5×10^4/ml cell suspension by a medium containing 10% fetal bovine serum. And the cell suspension was inoculated in a 96-well culture plate, and each well was 100 μL. The 96-well culture plate was cultured at 37° C. and 5% CO2 for 24 hours. The experimental group was replaced with a new culture medium containing different concentrations of the sample to be tested, namely, isovaleryl spiramycin I, isovaleryl spiramycin II, or isovaleryl spiramycin III, while the control group was replaced with a culture medium containing the same volume of solvent. Each group was set up with 3 parallel wells that were cultured at 37° C. and 5% CO2 for 48 hours. After the supernatant was removed, the wells were washed carefully for 3 times with PBS. And 100 μL of freshly prepared culture medium containing 0.5 mg/ml MTT was added to each well for continuous incubation for 4 hours at 37° C. After the supernatant was removed carefully, 150 μL of DMSO was added to each well, and after the material was mixed for 10 minutes with a micro-oscillator, the optical density value was measured at 492 nm with a microplate reader.
The inhibition rate of the medicament on tumor cell growth is calculated according to the following formula:
Tumor cell growth inhibition rate (%)=[A492 (negative control)−A492 (dosing group)]/A492 (negative control)×100%
And the half-inhibitory concentration (IC50) of the sample is determined therefrom.

[2] = tested on: transplanted tumor of HL60 cells; test: HL-60 transplanted tumor in nude mice; conditions: for Tumor Volume (mm3) (d30): d 30
Experimental: (§1) HL-60 cells in a logarithmic growth phase were taken and subjected to a trypan blue exclusion experiment showing that the cell viability was more than 95%, then the cells were subjected to trypsinization, centrifugation, and supernatant removal. Then cell concentration was adjusted to 1×10^7/ml with matrigel, then each nude mouse was inoculated subcutaneously with 0.2 ml of cells at its right armpit and recorded as the first day of inoculation. When the tumor grows to be greater than or equal to 100 mm^3, the mice were randomly divided into 11 groups with 6 mice in each group: isovaleryl spiramycin I groups with doses of 25, 50 and 100 mg/kg, isovaleryl spiramycin II groups with doses of 25, 50 and 100 mg/kg, and isovaleryl spiramycin III groups with doses of 25, 50 and 100 mg/kg. Each group was continuously administered intragastrically for 30 days with a dose of 20 ml/kg. The mice were sacrificed the next day after drug withdrawal and the indicators were tested. The long diameter and short diameter of the tumor, and the weight of each mouse were recorded every 3 days from drug administration to nude mouse sacrifice.
(§2) The body weight of the nude mice and the long diameter (a) and short diameter (b) of the transplanted tumor were measured every 3 days, and the tumor volume (v), relative tumor volume (RTV) and relative tumor proliferation rate (T/C) are calculated respectively according to the following formulas, wherein V=a×b^2/2; RTV=V/V0 (V0 is the tumor volume before administration, V is the tumor volume before sacrifice), and T/C (%)=treatment group RTV/model control group RTV×100%.
(§3) Each mouse was weighed and sacrificed. After the tumor was completely stripped off from the body of the mouse, the non-tumor tissues such as blood stains and fat were removed to weigh the tumor and calculate the tumor growth inhibition rate. The average tumor weight of each group of mice is used as an indicator of efficacy. Tumor growth inhibition rate (%)=(1−the average tumor weight of the treatment group/the average tumor weight of the model group)×100%.

[3] = tested on: transplanted tumor of human bladder cancer cell T-24; test: T-24 transplanted tumor in nude mice; conditions: for Tumor Volume (mm3) (d30): d 30
Experimental: as §1, with “Then cell” for “HL-60 cells in a logarithmic growth phase were taken and subjected to a trypan blue exclusion experiment showing that the cell viability was more than 95%, then the cells were subjected to trypsinization, centrifugation, and supernatant removal. Then cell”, “and the body weight of” for “and the weight of”
as §2, §3

[4] = HL-60, high dose (100 mg/kg in method) i.g. 30 days
[5] = HL-60, low dose (25 mg/kg in method) i.g. 30 days
[6] = HL-60, medium dose (50 mg/kg in method) i.g. 30 days
[7] = T-24, high dose (100 mg/kg in method) i.g. 30 days
[8] = T-24, low dose (25 mg/kg in method) i.g. 30 days
[9] = T-24, medium dose (50 mg/kg in method) i.g. 30 days

## CCC(=O)O[C@@H]1CC(=O)O[C@H](C)C/C=C/C=C/[C@H](O[C@H]2CC[C@H](N(C)C)[C@@H](C)O2)[C@H](C)C[C@H](CC=O)[C@H](O[C@@H]2O[C@H](C)[C@@H](O[C@H]3C[C@@](C)(O)[C@@H](OC(=O)CC(C)C)[C@H](C)O3)[C@H](N(C)C)[C@H]2O)[C@H]1OC [Isovaleryl spiramycin III, isovaleryl spiramycin III]
[1]
  IC50: 32.40 ± 0.41 µg/mL (≈ 33 µM)
[2]; [4]
  Relative Tumor Proliferation Rate (T/C): 39.87%
  tumor growth inhibition rate: 55.05%
[2]; [5]
  Relative Tumor Proliferation Rate (T/C): 76.09%
  tumor growth inhibition rate: 17.10%
[2]; HL-60, low, medium and high doses, P<0.05
  tumor volume and relative tumor volume compared with the model group: significantly lower
[2]; [6]
  Relative Tumor Proliferation Rate (T/C): 61.90%
  tumor growth inhibition rate: 29.92%
[2]; dose 25 mg/kg
  Inhibition Rate (%): 17.10%
  Relative Tumor Proliferation Rate (T/C): 76.09%
  Relative Tumor Volume (RTV): 8.56 ± 1.82
  Tumor Weight: 1.88 ± 0.25 g
  Tumor Volume (mm3) (d 1): 184.12 ± 22.53 mm3
  Tumor Volume (mm3) (d30): 1543.27 ± 190.73 mm3
[2]; dose 50 mg/kg
  Inhibition Rate (%): 29.92%
  Relative Tumor Proliferation Rate (T/C): 61.90%
  Relative Tumor Volume (RTV): 6.96 ± 2.25
  Tumor Weight: 1.59 ± 0.45 g
  Tumor Volume (mm3) (d 1): 189.31 ± 24.59 mm3
  Tumor Volume (mm3) (d30): 1308.87 ± 436.30 mm3
[2]; dose 100 mg/kg
  Inhibition Rate (%): 55.05%
  Relative Tumor Proliferation Rate (T/C): 39.87%
  Relative Tumor Volume (RTV): 4.48 ± 2.94
  Tumor Weight: 1.01 ± 0.41 g
  Tumor Volume (mm3) (d 1): 188.01 ± 27.66 mm3
  Tumor Volume (mm3) (d30): 789.65 ± 404.78 mm3
[2]; mouse, in vivo
  mouse weight compared with the model group: no significant changes
[2]; mouse, in vivo, 25 mg/kg
  Body Weight (g) (d1): 20.60 ± 1.57 g
  Body Weight (g) (d30): 20.67 ± 1.51 g
[2]; mouse, in vivo, 50 mg/kg
  Body Weight (g) (d1): 20.82 ± 1.42 g
  Body Weight (g) (d30): 20.59 ± 1.36 g
[2]; mouse, in vivo, 100 mg/kg
  Body Weight (g) (d1): 20.2l ± l .87 g
  Body Weight (g) (d30): 20.25 ± 1.22 g
[3]; [7]
  Relative Tumor Proliferation Rate (T/C): 39.39%
  tumor growth inhibition rate: 61.30%
[3]; [8]
  Relative Tumor Proliferation Rate (T/C): 80.34%
  tumor growth inhibition rate: 21.00%
[3]; T-24, low, medium and high doses, P<0.05
  tumor volume and relative tumor volume compared with the model group: significantly lower
[3]; [9]
  Relative Tumor Proliferation Rate (T/C): 62.35%
  tumor growth inhibition rate: 44.84%
[3]; dose 25 mg/kg
  Inhibition Rate (%): 21.00%
  Relative Tumor Proliferation Rate (T/C): 80.34%
  Relative Tumor Volume (RTV): 10.61 ± 2.24
  Tumor Weight: 1.48 ± 0.43 g
  Tumor Volume (mm3) (d 1): 135.55 ± 18.08 mm3
  Tumor Volume (mm3) (d30): 1427.95 ± 311.97 mm3
[3]; dose 50 mg/kg
  Inhibition Rate (%): 44.84%
  Relative Tumor Proliferation Rate (T/C): 62.35%
  Relative Tumor Volume (RTV): 8.24 ± 0.38
  Tumor Weight: 1.03 ± 0.42 g
  Tumor Volume (mm3) (d 1): 136.32 ± 15.54 mm3
  Tumor Volume (mm3) (d30): 1123.28 ± 140.84 mm3
[3]; dose 100 mg/kg
  Inhibition Rate (%): 61.30%
  Relative Tumor Proliferation Rate (T/C): 39.39%
  Relative Tumor Volume (RTV): 5.20 ± 0.71
  Tumor Weight: 0.73 ± 0.20 g
  Tumor Volume (mm3) (d 1): 134.53 ± 20.46 mm3
  Tumor Volume (mm3) (d30): 697.48 ± 130.89 mm3
[3]; mouse, in vivo
  mouse weight compared with the model group: no significant changes
[3]; mouse, in vivo, 25 mg/kg
  Body Weight (g) (d1): 19.57 ± 0.52 g
  Body Weight (g) (d30): 25.72 ± 1.53 g
[3]; mouse, in vivo, 50 mg/kg
  Body Weight (g) (d1): 19.61 ± 0.44 g
  Body Weight (g) (d30): 26.47 ± 0.52 g
[3]; mouse, in vivo, 100 mg/kg
  Body Weight (g) (d1): 19.90 ± 0.58 g
  Body Weight (g) (d30): 25.05 ± 0.93 g
